Source: US20020019395A1, “Indalone and benzimidazolone inhibitors of factor Xa” (priority 2000, published 2002)

Legend:
Type in all cases: biochemical
TRYPSIN = target: T1, TRYPSIN (Bos taurus, UniProt P00760); test: trypsin protease inhibition assay
T1 construct: gene PRSS1
T1 sequence (P00760 24-246): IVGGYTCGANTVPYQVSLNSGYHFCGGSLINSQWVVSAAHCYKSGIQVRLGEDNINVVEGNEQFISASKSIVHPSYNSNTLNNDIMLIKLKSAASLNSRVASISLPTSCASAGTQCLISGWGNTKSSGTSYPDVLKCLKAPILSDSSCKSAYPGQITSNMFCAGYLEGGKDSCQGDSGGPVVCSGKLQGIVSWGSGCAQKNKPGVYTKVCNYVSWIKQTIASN

prothrombinase complex = prothrombinase complex (Homo sapiens, UniProt P00742); test: prothrombinase inhibition assay (IIASE), plasma free system; conditions: factor Xa 0.5 nM, factor Va 2 nM, phospholipid, Chromozym TH
Sequence of prothrombinase complex (P00742 235-488 limits assumed): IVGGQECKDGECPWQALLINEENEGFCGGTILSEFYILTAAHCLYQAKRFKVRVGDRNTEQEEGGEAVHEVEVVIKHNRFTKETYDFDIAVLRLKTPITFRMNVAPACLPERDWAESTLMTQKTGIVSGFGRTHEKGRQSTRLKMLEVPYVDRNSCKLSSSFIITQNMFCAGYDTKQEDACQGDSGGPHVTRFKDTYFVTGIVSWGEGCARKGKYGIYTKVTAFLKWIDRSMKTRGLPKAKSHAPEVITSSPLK
Sequence of prothrombinase complex (P00742 41-179 partner limits assumed): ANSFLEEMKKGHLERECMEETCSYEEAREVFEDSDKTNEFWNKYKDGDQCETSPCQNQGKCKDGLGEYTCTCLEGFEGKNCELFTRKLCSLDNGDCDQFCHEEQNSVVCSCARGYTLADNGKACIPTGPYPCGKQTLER
Sequence of prothrombinase complex (P12259 29-737 partner limits assumed): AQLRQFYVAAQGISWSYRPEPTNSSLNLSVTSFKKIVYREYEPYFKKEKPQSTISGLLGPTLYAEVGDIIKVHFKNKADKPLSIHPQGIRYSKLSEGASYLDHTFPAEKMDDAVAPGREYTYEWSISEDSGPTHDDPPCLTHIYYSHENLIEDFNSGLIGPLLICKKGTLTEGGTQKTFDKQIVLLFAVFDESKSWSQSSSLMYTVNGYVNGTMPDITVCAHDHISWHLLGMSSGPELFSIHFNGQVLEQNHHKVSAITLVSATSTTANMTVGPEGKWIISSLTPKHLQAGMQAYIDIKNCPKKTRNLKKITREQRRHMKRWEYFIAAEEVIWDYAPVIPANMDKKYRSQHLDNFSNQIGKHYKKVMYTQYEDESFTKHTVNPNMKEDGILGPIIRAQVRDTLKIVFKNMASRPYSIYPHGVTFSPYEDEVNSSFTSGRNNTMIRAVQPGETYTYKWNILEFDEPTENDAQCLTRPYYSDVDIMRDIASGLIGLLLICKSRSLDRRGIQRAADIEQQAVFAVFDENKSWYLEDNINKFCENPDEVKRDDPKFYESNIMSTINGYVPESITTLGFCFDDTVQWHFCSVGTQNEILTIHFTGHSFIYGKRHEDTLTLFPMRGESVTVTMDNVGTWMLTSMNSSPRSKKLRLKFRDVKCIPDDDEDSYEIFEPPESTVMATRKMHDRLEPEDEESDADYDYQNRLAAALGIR
Sequence of prothrombinase complex (P12259 1574-2224 partner limits assumed): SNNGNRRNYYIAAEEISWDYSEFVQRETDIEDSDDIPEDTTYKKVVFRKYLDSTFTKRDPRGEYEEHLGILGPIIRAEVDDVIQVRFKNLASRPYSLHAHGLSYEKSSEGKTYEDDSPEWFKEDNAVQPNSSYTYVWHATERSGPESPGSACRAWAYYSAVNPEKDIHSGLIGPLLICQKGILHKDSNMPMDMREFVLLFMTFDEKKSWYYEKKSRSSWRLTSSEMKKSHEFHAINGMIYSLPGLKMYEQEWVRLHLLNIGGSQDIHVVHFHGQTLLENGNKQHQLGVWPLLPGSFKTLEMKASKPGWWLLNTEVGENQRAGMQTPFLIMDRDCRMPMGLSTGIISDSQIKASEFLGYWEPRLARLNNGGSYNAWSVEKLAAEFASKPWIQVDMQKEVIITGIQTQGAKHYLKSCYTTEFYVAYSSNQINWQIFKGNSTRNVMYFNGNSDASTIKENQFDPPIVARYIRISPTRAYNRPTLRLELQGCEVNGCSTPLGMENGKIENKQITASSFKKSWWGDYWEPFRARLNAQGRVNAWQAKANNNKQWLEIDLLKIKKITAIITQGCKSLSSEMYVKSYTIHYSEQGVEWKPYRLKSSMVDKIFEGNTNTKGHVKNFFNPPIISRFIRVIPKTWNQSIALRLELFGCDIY
Description: (§1) The compounds of the present invention are dissolved in buffer to give solutions containing concentrations such that assay concentrations range from about 0 to about 100 μM. In the assays for thrombin, prothrombinase and factor Xa, a synthetic chromogenic substrate is added to a solution containing test compound and the enzyme of interest and the residual catalytic activity of that enzyme is determined spectrophotometrically. The IC50 of a compound is determined from the substrate turnover. The IC50 is the concentration of test compound giving about 50% inhibition of the substrate turnover.
The prothrombinase inhibition assay was performed in a plasma free system with modifications to the method described by Sinha, U. et al., Thromb. Res., 75, 427-436 (1994). Specifically, the activity of the prothrombinase complex was determined by measuring the time course of thrombin generation using the p-nitroanilide substrate Chromozym TH. The assay consists of preincubation (5 minutes) of selected compounds to be tested as inhibitors with the complex formed from factor Xa (0.5 nM), factor Va (2 nM), phosphatidyl serine:phosphatidyl choline (25:75, 20 μM) in 20 mM Tris.HCl buffer, pH 7.5, containing 0.15 M NaCl, 5 mM CaCl2 and 0.1% bovine serum albumin. Aliquots from the complex-inhibitor mixture were added to prothrombin (1 nM) and Chromozym TH (0.1 mM). The rate of substrate cleavage was monitored at 405 nm for two minutes. Eight different concentrations of inhibitor were assayed in duplicate. A standard curve of thrombin generation by an equivalent amount of untreated complex was used for determination of percent inhibition.

thrombin = thrombin (Homo sapiens, UniProt P00734); test: thrombin amidolytic assay (IIA); conditions: substrate Chromozym TH, pH 7.5, room temperature
Description: as §1
(§2) The factor Xa and thrombin assays were performed at room temperature, in 0.02 M Tris.HCl buffer, pH 7.5, containing 0.15 M NaCl. The rates of hydrolysis of the para-nitroanilide substrate S-2765 (Chromogenix) for factor Xa, and the substrate Chromozym TH (Boehringer Mannheim) for thrombin following preincubation of the enzyme with inhibitor for 5 minutes at room temperature, and were determined using the Softmax 96-well plate reader (Molecular Devices), monitored at 405 nm to measure the time dependent appearance of p-nitroaniline.

factor Xa = factor Xa (Homo sapiens, UniProt P00742); test: factor Xa amidolytic assay (XA); conditions: substrate S-2765, pH 7.5, room temperature
Sequence of factor Xa (P00742 235-488 limits assumed): as the sequence (P00742 235-488 limits assumed) above
Sequence of factor Xa (P00742 41-179 partner limits assumed): as the sequence (P00742 41-179 partner limits assumed) above
Description: as §1, §2

TPA = TPA (Homo sapiens, UniProt P00750); test: TPA protease inhibition assay
Sequence of TPA (P00750 36-562, species assumed): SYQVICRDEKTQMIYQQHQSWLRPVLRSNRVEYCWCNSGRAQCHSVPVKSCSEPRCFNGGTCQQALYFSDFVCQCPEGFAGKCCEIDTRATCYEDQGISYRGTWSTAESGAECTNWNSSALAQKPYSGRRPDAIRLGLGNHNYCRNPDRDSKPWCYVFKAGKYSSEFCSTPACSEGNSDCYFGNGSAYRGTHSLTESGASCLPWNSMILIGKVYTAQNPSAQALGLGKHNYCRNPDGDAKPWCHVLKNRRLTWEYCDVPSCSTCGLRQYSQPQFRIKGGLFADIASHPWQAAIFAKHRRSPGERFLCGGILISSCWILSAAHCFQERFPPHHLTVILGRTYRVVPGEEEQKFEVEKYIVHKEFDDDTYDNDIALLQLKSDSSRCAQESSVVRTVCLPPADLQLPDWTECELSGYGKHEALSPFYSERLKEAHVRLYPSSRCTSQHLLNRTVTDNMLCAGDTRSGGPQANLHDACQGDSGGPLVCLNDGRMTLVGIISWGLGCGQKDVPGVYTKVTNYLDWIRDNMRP

KALLIKREIN = test: kallikrein protease inhibition assay
APC = APC (Homo sapiens, UniProt P04070); test: APC protease inhibition assay
Sequence of APC (P04070 212-450 limits assumed): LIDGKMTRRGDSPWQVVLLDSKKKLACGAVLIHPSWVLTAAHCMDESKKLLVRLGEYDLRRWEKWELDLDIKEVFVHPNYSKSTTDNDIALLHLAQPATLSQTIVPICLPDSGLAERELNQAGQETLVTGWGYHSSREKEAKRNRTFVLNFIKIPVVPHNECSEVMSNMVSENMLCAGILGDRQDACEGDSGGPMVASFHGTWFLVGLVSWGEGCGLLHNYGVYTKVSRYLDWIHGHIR
Sequence of APC (P04070 43-197 partner limits assumed): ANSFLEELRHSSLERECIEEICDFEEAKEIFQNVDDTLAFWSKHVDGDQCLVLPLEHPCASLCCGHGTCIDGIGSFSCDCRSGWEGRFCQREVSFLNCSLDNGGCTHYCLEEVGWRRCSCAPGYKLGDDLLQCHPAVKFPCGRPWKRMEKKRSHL

PLASMIN = PLASMIN (Homo sapiens, UniProt P00747); test: plasmin protease inhibition assay
Sequence of PLASMIN (P00747 581-810 limits assumed, species assumed): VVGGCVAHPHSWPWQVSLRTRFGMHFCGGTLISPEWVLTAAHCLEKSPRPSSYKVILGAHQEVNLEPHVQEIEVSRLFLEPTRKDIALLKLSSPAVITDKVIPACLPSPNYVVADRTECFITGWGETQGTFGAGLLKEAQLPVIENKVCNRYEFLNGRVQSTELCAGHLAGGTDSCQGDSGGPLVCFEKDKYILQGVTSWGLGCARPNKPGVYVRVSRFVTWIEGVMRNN
Sequence of PLASMIN (P00747 97-580 partner limits assumed, species assumed): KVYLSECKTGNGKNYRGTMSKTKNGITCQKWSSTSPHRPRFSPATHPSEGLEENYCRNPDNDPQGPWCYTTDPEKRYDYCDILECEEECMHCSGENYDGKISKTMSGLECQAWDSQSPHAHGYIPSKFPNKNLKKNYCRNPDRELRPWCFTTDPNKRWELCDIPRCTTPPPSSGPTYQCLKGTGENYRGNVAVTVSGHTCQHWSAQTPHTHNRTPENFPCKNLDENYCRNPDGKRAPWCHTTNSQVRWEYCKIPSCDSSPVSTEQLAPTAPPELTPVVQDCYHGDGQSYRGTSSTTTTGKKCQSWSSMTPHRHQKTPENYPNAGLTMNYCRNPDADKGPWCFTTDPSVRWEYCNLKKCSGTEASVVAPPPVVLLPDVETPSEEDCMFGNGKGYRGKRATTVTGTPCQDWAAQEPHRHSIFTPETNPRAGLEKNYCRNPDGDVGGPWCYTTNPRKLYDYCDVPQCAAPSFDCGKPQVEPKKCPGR

| Compound | IC50 (TRYPSIN) | IC50 (prothrombinase complex) | IC50 (thrombin) | IC50 (factor Xa) | IC50 (TPA) | IC50 (KALLIKREIN) | IC50 (APC) | IC50 (PLASMIN) |
| --- | --- | --- | --- | --- | --- | --- | --- | --- |
| CC(=N)N1CCC(Oc2ccc3c(c2)n(Cc2ccc4ccc(C(=N)N)cc4c2)c(=O)n3CC(=O)O)CC1 [Example 14] | 0.192 µM | 0.481 µM |  | 0.00815 µM | 88.1 µM | 2.95 µM | 19.3 µM | 6.04 µM |
| CC(=N)N1CCC(Oc2ccc3c(c2)n(Cc2ccc4ccc(C(=N)N)cc4c2)c(=O)n3C(C)C)CC1 [Example 8] | 0.349 µM | 0.425 µM | 30.2 µM | 0.0286 µM | 77.8 µM | 0.349 µM | 2.48 µM | 3.5 µM |
| N=C(N)c1ccc(Cn2c(=O)[nH]c3ccc(OC4CCN(C(=N)N)CC4)cc32)cc1 [Example 1] | 21.8 µM |  | 333 µM | 9.22 µM |  | 9.54 µM | 99.2 µM |  |
| CC(=N)N1CCC(Oc2ccc3c(c2)n(Cc2ccc4ccc(C(=N)N)cc4c2)c(=O)n3CC(=O)OCC(C)C)CC1 [Example 12] | 0.0816 µM | 0.103 µM | 264 µM | 0.0108 µM | 54 µM | 1.34 µM | 8.12 µM | 4.22 µM |
| CC(=N)N1CCC(Oc2ccc3c(c2)n(Cc2ccc4ccc(C(=N)N)cc4c2)c(=O)n3C)CC1 [Example 6] | 0.0557 µM | 0.422 µM | 32.1 µM | 0.027 µM | 36.1 µM | 0.592 µM | 7.65 µM | 3.67 µM |

Now from value to molecule:

| IC50 (TRYPSIN) | IC50 (prothrombinase complex) | IC50 (thrombin) | IC50 (factor Xa) | IC50 (TPA) | IC50 (KALLIKREIN) | IC50 (APC) | IC50 (PLASMIN) | Compound |
| --- | --- | --- | --- | --- | --- | --- | --- | --- |
| 0.0441 µM | 0.25 µM | 59.9 µM | 0.0178 µM | 42.8 µM | 1.25 µM | 6.51 µM | 2.71 µM | CC(C)COC(=O)Cn1c(=O)n(Cc2ccc3ccc(C(=N)N)cc3c2)c2cc(OC3CCN(C(=N)N)CC3)ccc21 [Example 13] |
| 0.509 µM | 0.47 µM | 0.302 µM | 1.77 µM |  |  |  |  | CCn1c(Cn2c(=O)[nH]c3ccc(OC4CCN(C(=N)N)CC4)cc32)cc2ccc(C(=N)N)cc21 [Example 18] |
| 0.0322 µM | 0.401 µM | 24.5 µM | 0.032 µM | 31.8 µM | 0.615 µM | 6.42 µM | 2.98 µM | Cn1c(=O)n(Cc2ccc3ccc(C(=N)N)cc3c2)c2cc(OC3CCN(C(=N)N)CC3)ccc21 [Example 7] |
| 0.392 µM | 0.827 µM | 14.9 µM | 0.0498 µM | 92.8 µM | 0.392 µM | 1.85 µM | 2.23 µM | CC(C)n1c(=O)n(Cc2ccc3ccc(C(=N)N)cc3c2)c2cc(OC3CCN(C(=N)N)CC3)ccc21 [Example 9] |
| 0.409 µM | 0.526 µM | 0.267 µM | 14 µM |  |  |  |  | CCn1c(Cn2c(=O)[nH]c3ccc(OC4CCN(C(C)=N)CC4)cc32)cc2ccc(C(=N)N)cc21 [Example 17] |
| 0.163 µM | 4.22 µM |  | 0.0671 µM | 169 µM | 9.22 µM | 49.8 µM | 17 µM | N=C(N)c1ccc2ccc(Cn3c(=O)n(CC(=O)O)c4ccc(OC5CCN(C(=N)N)CC5)cc43)cc2c1 [Example 15] |
| 0.133 µM | 0.0222 µM | 286 µM | 0.0204 µM | 101 µM | 0.508 µM | 15.9 µM | 8.94 µM | CC(=N)N1CCC(Oc2ccc3[nH]c(=O)n(Cc4ccc5ccc(C(=N)N)cc5c4)c3c2)CC1 [Example 4] |
